1 compound from publication PMC12948223, “HSP70 Interactome‐Mediated Proteolysis Targeting Chimera (HSP70‐PROTAC) for Ferroptosis‐Driven Cancer Treatment” (Advanced Science, 2025) can be followed below.

One assay concerns intracellular ROS. Description: Intracellular ROS (DCFH-DA, CLSM) in HT1080 cells. Particulars: 1 µM, 24 h. The format is cell-based, human. The procedure: To assess the total intracellular levels of reactive oxygen species (ROS), a DCFH‐DA (Dichloro‐dihydro‐fluorescein diacetate) assay kit was utilized. Briefly, HT1080 cells were seeded into confocal laser culture dishes and allowed to adhere for 24 h. Afterward, the cells were treated with GDAz‐3 at a concentration of 1 µM for 24 h. Subsequently, a DCFH‐DA probe was added to the cells and they were incubated for 20 min. After washing twice with PBS, the cells were visualized and imaged using a confocal laser scanning microscopy (CLSM).

A further assay concerns GSH. Description: Intracellular GSH in HT1080 cells. The format is cell-based, human. Particulars: 0.5 and 1 µM, 24 h. As to the method:
HT1080 cells were seeded into 10‐cm‐diameter culture dishes at a density of 2 × 10⁶ cells overnight and then exposed to GDAz‐3 (0.1, 0.5, and 1 µM). Followed by 24‐h incubation, the culture medium was discarded, and the cells were digested with trypsin. The cells were collected and washed with PBS, and threefold of protein removal reagent S was added. Two freeze‐thaw cycles were performed using liquid nitrogen and a 37 °C water bath, followed by a 5‐min ice bath. The samples were centrifuged at 10 000 × g for 10 min at 4 °C. The supernatant was collected and measured according to the instructions of the Total Glutathione Assay Kit (Beyotime Biotechnology, S0052) using a kinetic assay method.

In assay [1] the target is T1, GPX4 (Homo sapiens, UniProt P36969).
T1 sequence (P36969 1-170 isoform P36969-2): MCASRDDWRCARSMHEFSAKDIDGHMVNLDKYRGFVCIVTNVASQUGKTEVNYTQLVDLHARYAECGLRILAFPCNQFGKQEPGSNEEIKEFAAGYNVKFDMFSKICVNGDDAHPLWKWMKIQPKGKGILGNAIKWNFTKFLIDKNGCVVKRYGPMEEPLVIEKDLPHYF
Description: GPX4 and 4-HNE in HT1080 xenograft tumor tissue (IHC, western blot). On the set-up: from tissue; host or cells: HT1080 xenograft tumour tissue from BALB/c nude mice. It counts as in vivo, nude mice. From the text:
In addition, the tumor samples from the six treatment groups were randomly collected and probed for the levels of GPX4, and 4‐HNE (4‐hydroxynonenal, a lipid peroxidation marker) by immunohistochemistry (IHC) staining (Figure 7G). […] Collectively, the HSP70‐PROTAC GDAz‐3 has been confirmed as an effective ferroptosis‐inducing agent, which can degrade GPX4 both in vitro and in vivo via UPS and CMA dual processes.
The experimental procedures of the animal experiments were permitted by the Hangzhou Institute of Medicine (HIM), Chinese Academy of Sciences (AP2024‐07‐0010). Male BALB/c nude mice (6 weeks old) were housed under pathogen‐free conditions, maintained at a constant room temperature, and fed standard rodent chow and water. An HT1080 fibrosarcoma xenograft model in nude mice was established through subcutaneous transplantation. When the tumors emerged, the mice were randomly divided into six groups with six mice in each group: […], including the vehicle group, and each of the two inhibitor‐treated groups (ML162 and apoptozole) at 30 mg kg^−1, and their combinations. […] Body weight and tumor size were measured every other day, and the tumor volume and body weight were recorded every other day after drug treatment. After treatment, the animals were euthanized by cervical dislocation, and the tumor bulks were peeled off and weighed. The organ tissues (tumor, heart, liver, spleen, lung, and kidney) were harvested and fixed with 4% paraformaldehyde for hematoxylin‐eosin (H&E) and immunohistochemistry (IHC) staining. In addition, the expression of GPX4 in tumor samples was analyzed in vehicle‐ and GDAz‐3‐treated groups by western blot assay.
A general note: Immunoblotting shows a protein as a band on a membrane.

For assay [2], the target named is T2, GPX4 (Mus musculus, UniProt O70325).
T2 construct: endogenous in cells; host or cells: B16-F10
T2 sequence (O70325 1-170 isoform O70325-2): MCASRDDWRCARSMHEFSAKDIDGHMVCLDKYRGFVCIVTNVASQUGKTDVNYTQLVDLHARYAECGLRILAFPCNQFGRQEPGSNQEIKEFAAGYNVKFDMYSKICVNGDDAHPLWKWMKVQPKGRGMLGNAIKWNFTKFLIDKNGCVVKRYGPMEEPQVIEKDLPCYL
Nature of the assay: GPX4 degradation by western blot in B16-F10 cells. It counts as cell-based. Particulars: 3 µM, 24 h. The procedure:
To further confirm this degradation efficacy, an in‐cell western (ICW) assay, a quantitative immunofluorescence cell‐based technique, was performed to quantify the relative expression level of GPX4 after treatment with GDAz‐3 for 24 h. […] Given the promising GPX4 degradation activity of GDAz‐3, we extended our evaluation to additional ferroptosis‐sensitive cell lines, including triple‐negative breast cancer cells (MDA‐MB‐231) and melanoma cells (mouse B16‐F10). […] Based on the observation that GDAz‐3 was particularly effective in HT1080 cells, we selected this cell line for further degradation mechanism and ferroptosis pharmacodynamics studies.
Cells were seeded at a density of 4 × 10^5 cells well^−1 in 6‐well plates and allowed to incubate overnight. Cells were incubated with the indicated treatments. Thereafter, the cells were collected and lysed with RIPA buffer containing serine protease and phosphatase inhibitors for 30 min on ice. Proteins were quantified by using a BCA protein assay kit (Beyotime). […] Ultimately, the membrane was washed five times, and the antibody‐protein complexes were visualized using an ECL luminescence reagent (Biosharp, Shanghai, China). The relative intensities of the bands were analyzed by ImageJ and normalized to a loading control.

[3] abbreviates: 30 and 60 mg/kg, vs vehicle group.

As to `COc1ccc(-c2nc(-c3cc(C(F)(F)F)cc(C(F)(F)F)c3)n(Cc3ccc(C(=O)NCCOCCOCCOCCn4cc(COc5ccc(N(C(=O)CCl)C(C(=O)NCCc6ccccc6)c6cccs6)cc5Cl)nn4)cc3)c2-c2ccc(OC)cc2)cc1` (stereo not drawn) [GDAz-3, 4-((2-(3,5-bis(trifluoromethyl)phenyl)-4,5-bis(4-methoxyphenyl)-1H-imidazol-1-yl)methyl)-N-(2-(2-(2-(2-(4-((2-chloro-4-(2-chloro-N-(2-oxo-2-(phenethylamino)-1-(thiophen-2-yl)ethyl)acetamido)phenoxy)methyl)-1H-1,2,3-triazol-1-yl)ethoxy)ethoxy)ethoxy)ethyl)benzamide], the “Level of intracellular ROS” value in the assay on intracellular ROS is on record as “enhanced”. Moreover, the “Level of intracellular GSH” value in the assay with GSH is recorded as “significantly decreased”. Also, at GPX4 [1] (setting [3]), the “4-HNE levels in tumor (IHC)” value was “increase in 4‐HNE levels” and the “GPX4 levels in tumor (IHC)” value was “reduction in GPX4 levels”. For the same compound, the “GPX4 protein in HT1080 tumor tissue (western blot)” value on GPX4 [1] (single IP injection 50 mg/kg) is “reduce the level of GPX4 protein over the vehicle control at the 12, 24, and 36 h time points”. Also, the GPX4 level result at GPX4 [2] is listed as “markedly decreased GPX4 level”.
